Reference: ChEMBL document CHEMBL5137080, “Discovery of Novel 7-Hydroxy-5-oxo-4,5-dihydrothieno[3,2-b]pyridine-6-carboxamide Derivatives with Potent and Selective Antifungal Activity against Cryptococcus Species” (J Med Chem, 2022)

Experiments:
Cryptococcus neoformans [1] = assay: Antifungal activity against Cryptococcus neoformans clinical isolate HN20 assessed as fungal growth inhibition incubated for 72 hrs in presence of Fluconazole by broth microdilution method; type: functional
[2] = C0 in Sprague-Dawley rat at 2 mg/kg,iv by LC-MS/MS analysis; type: ADME, organism-based; settings: in vivo
Cryptococcus neoformans [3] = assay: Synergistic antifungal activity against Cryptococcus neoformans clinical isolate HN1 assessed as fractional inhibitory concentration index incubated for 72 hrs in presence of Fluconazole by broth microdilution method; type: functional
[4] = Selectivity index, ratio of IC50 for human Caco-2 to MIC for antifungal activity against Cryptococcus neoformans; type: toxicity; settings: Caco-2 cells, read-out: Selectivity Index
Pichia kudriavzevii [5] = assay: Antifungal activity against Candida krusei ATCC2340 assessed as fungal growth inhibition incubated for 48 hrs in presence of Fluconazole by broth microdilution method; type: functional
Nakaseomyces glabratus = assay: Synergistic antifungal activity against Candida glabrata ATCC1182 assessed as fractional inhibitory concentration index incubated for 48 hrs in presence of Fluconazole by broth microdilution method; type: functional
Cryptococcus neoformans [6] = assay: Synergistic antifungal activity against Cryptococcus neoformans clinical isolate 56992 assessed as fractional inhibitory concentration index incubated for 72 hrs in presence of Fluconazole by broth microdilution method; type: functional
Cryptococcus neoformans [7] = assay: Synergistic antifungal activity against Cryptococcus neoformans clinical isolate HN20 assessed as fractional inhibitory concentration index incubated for 72 hrs in presence of Fluconazole by broth microdilution method; type: functional
[8] = system: Cryptococcus gattii species complex; assay: Synergistic antifungal activity against Cryptococcus gattii clinical isolate SCZ20024 assessed as fractional inhibitory concentration index incubated for 72 hrs in presence of Fluconazole by broth microdilution method; type: functional
[9] = system: Cryptococcus gattii species complex; assay: Antifungal activity against Cryptococcus gattii E566 assessed as fungal growth inhibition incubated for 72 hrs in presence of Fluconazole by broth microdilution method; type: functional
[10] = system: Cryptococcus deuterogattii; assay: Antifungal activity against Cryptococcus gattii WM178 infected in Wax moth larvae assessed as survival rate at 10 mg/kg measured after 9 days in presence of Fluconazole by Kaplan-Meier method; type: functional, Cryptococcus gattii species complex; settings: WM178, 216 h, time 9 day
[11] = Selectivity index, ratio of IC50 for rabbit RBC to MIC for antifungal activity against Cryptococcus neoformans; type: toxicity; settings: red blood cells, read-out: Selectivity Index
[12] = system: Cryptococcus gattii species complex; assay: Antifungal activity against Cryptococcus gattii clinical isolate SCZ20024 assessed as fungal growth inhibition incubated for 72 hrs in presence of Fluconazole by broth microdilution method; type: functional
Candida tropicalis [13] = assay: Synergistic antifungal activity against Candida tropicalis ATCC20026 assessed as fractional inhibitory concentration index incubated for 48 hrs in presence of Fluconazole by broth microdilution method; type: functional
[14] = system: Cryptococcus deuterogattii; assay: Antifungal activity against Cryptococcus gattii WM178 assessed as reduction on fungal growth at 2 ug/ml incubated for 48 hrs by plate reader assay; type: functional, Cryptococcus gattii species complex; parameters: scale not given: the % may be the effect or the level left; settings: dose 2 µg/ml
Cryptococcus neoformans [15] = assay: Antifungal activity against Cryptococcus neoformans clinical isolate 444 assessed as fungal growth inhibition incubated for 72 hrs in presence of Fluconazole by broth microdilution method; type: functional
Candida tropicalis [16] = assay: Antifungal activity against Candida tropicalis ATCC20026 assessed as fungal growth inhibition incubated for 48 hrs in presence of Fluconazole by broth microdilution method; type: functional
Cryptococcus neoformans [17] = assay: Synergistic antifungal activity against Cryptococcus neoformans clinical isolate 443 assessed as fractional inhibitory concentration index incubated for 72 hrs in presence of Fluconazole by broth microdilution method; type: functional
[Candida] auris [18] = Synergistic antifungal activity against Candida auris CBS 12372 assessed as fractional inhibitory concentration index incubated for 48 hrs in presence of Fluconazole by broth microdilution method; type: functional, Candidozyma auris
Cryptococcus neoformans [19] = assay: Antifungal activity against Cryptococcus neoformans clinical isolate 443 assessed as fungal growth inhibition incubated for 72 hrs in presence of Fluconazole by broth microdilution method; type: functional
[20] = system: Cryptococcus deuterogattii; assay: Synergistic antifungal activity against Cryptococcus gattii WM178 assessed as fractional inhibitory concentration index incubated for 72 hrs in presence of Fluconazole by broth microdilution method; type: functional, Cryptococcus gattii species complex
Candida parapsilosis = assay: Antifungal activity against Candida parapsilosis ATCC22019 assessed as fungal growth inhibition incubated for 48 hrs in presence of Fluconazole by broth microdilution method; type: functional; settings: Lodderomyces parapsilosis
[21] = system: Cryptococcus gattii species complex; assay: Synergistic antifungal activity against Cryptococcus gattii E566 assessed as fractional inhibitory concentration index incubated for 72 hrs in presence of Fluconazole by broth microdilution method; type: functional
[22] = system: Cryptococcus deuterogattii; assay: Synergistic antifungal activity against Cryptococcus gattii WM178 assessed as fractional inhibitory concentration index incubated for 72 hrs in presence of P163-0892 by broth microdilution method; type: functional, Cryptococcus gattii species complex
Cryptococcus gattii [23] = assay: Synergistic antifungal activity against Cryptococcus gattii WM179 assessed as fractional inhibitory concentration index incubated for 72 hrs in presence of P163-0892 by broth microdilution method; type: functional, Cryptococcus gattii species complex
Cryptococcus neoformans [24] = assay: Antifungal activity against Cryptococcus neoformans clinical isolate BJ3 assessed as fungal growth inhibition incubated for 72 hrs in presence of P163-0892 by broth microdilution method; type: functional
Cryptococcus gattii [25] = assay: Antifungal activity against Cryptococcus gattii WM179 assessed as fungal growth inhibition incubated for 72 hrs in presence of P163-0892 by broth microdilution method; type: functional, Cryptococcus gattii species complex
Cryptococcus neoformans [26] = assay: Synergistic antifungal activity against Cryptococcus neoformans clinical isolate HN1 assessed as fractional inhibitory concentration index incubated for 72 hrs in presence of P163-0892 by broth microdilution method; type: functional
[27] = system: Cryptococcus gattii species complex; assay: Synergistic antifungal activity against Cryptococcus gattii E566 assessed as fractional inhibitory concentration index incubated for 72 hrs in presence of P163-0892 by broth microdilution method; type: functional
[28] = system: Cryptococcus gattii species complex; assay: Antifungal activity against Cryptococcus gattii E566 assessed as fungal growth inhibition incubated for 72 hrs in presence of P163-0892 by broth microdilution method; type: functional
Cryptococcus neoformans [29] = assay: Antifungal activity against Cryptococcus neoformans clinical isolate 445 assessed as fungal growth inhibition incubated for 72 hrs in presence of P163-0892 by broth microdilution method; type: functional
[30] = system: Cryptococcus gattii species complex; assay: Synergistic antifungal activity against Cryptococcus gattii clinical isolate SCZ20024 assessed as fractional inhibitory concentration index incubated for 72 hrs in presence of P163-0892 by broth microdilution method; type: functional
Cryptococcus neoformans [31] = assay: Antifungal activity against Cryptococcus neoformans clinical isolate HN15 assessed as fungal growth inhibition incubated for 72 hrs in presence of P163-0892 by broth microdilution method; type: functional
Cryptococcus neoformans [32] = assay: Synergistic antifungal activity against Cryptococcus neoformans clinical isolate HN17 assessed as fractional inhibitory concentration index incubated for 72 hrs in presence of P163-0892 by broth microdilution method; type: functional
Cryptococcus neoformans [33] = assay: Synergistic antifungal activity against Cryptococcus neoformans clinical isolate HN15 assessed as fractional inhibitory concentration index incubated for 72 hrs in presence of P163-0892 by broth microdilution method; type: functional
[Candida] auris [34] = Antifungal activity against Candida auris CBS 12372 assessed as fungal growth inhibition incubated for 48 hrs in presence of P163-0892 by broth microdilution method; type: functional; settings: Candidozyma auris
Pichia kudriavzevii [35] = assay: Antifungal activity against Candida krusei ATCC2340 assessed as fungal growth inhibition incubated for 48 hrs in presence of P163-0892 by broth microdilution method; type: functional
Candida tropicalis [36] = assay: Antifungal activity against Candida tropicalis ATCC20026 assessed as fungal growth inhibition incubated for 48 hrs in presence of P163-0892 by broth microdilution method; type: functional
Cryptococcus neoformans [37] = assay: Antifungal activity against Cryptococcus neoformans clinical isolate HN19 assessed as fungal growth inhibition incubated for 72 hrs in presence of P163-0892 by broth microdilution method; type: functional

CCCCNC(=O)c1c(O)c2sccc2n(Cc2ccccc2)c1=O
MIC (Cryptococcus neoformans [1]): 0.0625 mg/L
C0 [2]: 2.46 µg/mL
fractional inhibitory concentration index (FICI) (Cryptococcus neoformans [3]): 0.125
selectivity ratio [4]: > 256
MIC (Pichia kudriavzevii [5]): 8 mg/L
fractional inhibitory concentration index (FICI) (Nakaseomyces glabratus): 0.625
fractional inhibitory concentration index (FICI) (Cryptococcus neoformans [6]): 0.25
fractional inhibitory concentration index (FICI) (Cryptococcus neoformans [7]): 0.375
fractional inhibitory concentration index (FICI) [8]: 0.313
MIC [9]: 0.0313 mg/L
survival at 10 mg/kg [10]: 70%
selectivity ratio [11]: > 256
MIC [12]: 0.0313 mg/L
fractional inhibitory concentration index (FICI) (Candida tropicalis [13]): 0.516
Activity [14]: 45.5%
MIC (Cryptococcus neoformans [15]): 0.0156 mg/L
MIC (Candida tropicalis [16]): 2 mg/L
fractional inhibitory concentration index (FICI) (Cryptococcus neoformans [17]): 0.156
fractional inhibitory concentration index (FICI) ([Candida] auris [18]): 1.008
MIC (Cryptococcus neoformans [19]): 0.0313 mg/L
fractional inhibitory concentration index (FICI) [20]: 0.25
MIC (Candida parapsilosis): 16 mg/L
fractional inhibitory concentration index (FICI) [21]: 0.188

OC(Cn1cncn1)(Cn1cncn1)c1ccc(F)cc1F [FLUCONAZOLE]
fractional inhibitory concentration index (FICI) [22]: 0.25
fractional inhibitory concentration index (FICI) (Cryptococcus gattii [23]): 0.25
MIC (Cryptococcus neoformans [24]): 0.25 mg/L
MIC (Cryptococcus gattii [25]): 0.5 mg/L
fractional inhibitory concentration index (FICI) (Cryptococcus neoformans [26]): 0.125
fractional inhibitory concentration index (FICI) [27]: 0.188
MIC [28]: 0.5 mg/L
MIC (Cryptococcus neoformans [29]): 2 mg/L
fractional inhibitory concentration index (FICI) [30]: 0.313
MIC (Cryptococcus neoformans [31]): 1 mg/L
fractional inhibitory concentration index (FICI) (Cryptococcus neoformans [32]): 0.156
fractional inhibitory concentration index (FICI) (Cryptococcus neoformans [33]): 0.313
MIC ([Candida] auris [34]): > 64 mg/L
MIC (Pichia kudriavzevii [35]): 32 mg/L
MIC (Candida tropicalis [36]): 1 mg/L
MIC (Cryptococcus neoformans [37]): 1 mg/L
